These results are taken from article PMC3029310 (Journal of Insect Science, 2010).

The experiment concerns T1, AChE.
T1 construct: gene ace1; native; newly emerged adult males for these rows
In words: Ellman assay (DTNB, […] nm), […] substrate concentrations […]. The experiment is classed as biochemical, Blattella germanica. Conditions: newly emerged adult males; pH 7.5; 30 °C. On the technique in general: Ellman's reagent forms a yellow product with free thiols.

The Km is the concentration of substrate that gives half-maximal velocity. As for `CC(=O)SCC[N+](C)(C)C` [Acetylthiocholine iodide], the Km was found to be 340 ± 49 µM.
